# Measurements from US8957106B2, “Iminosugar treatment of tumors” (The Chancellor, Masters and Scholars of the University of …, priority 2007, dated 2015).
# How the values were obtained:
# MelJuSo cells = assay: Autophagic vesicle detection with GFP-LC3; format: cell-based, human; settings: MelJuSo transfected with GFP-LC3, 6 μM
# Description: LC3 is a protein recruited to an autophagosome membrane. The recruitment process is essential for autophagy and LC3 is a specific marker of the process, see Kabeya Y., et al., EMBO J. 19, 5720-5728, 2000. […] Cells were transiently transfected with GFP-LC3 plasmid DNA using the liposomal transfection kit Lipofectamine PLUS™ Reagent (Gibco-BRL) as described in Negroiu, G., et al., J. Biol. Chem. 278, 27035-27042, 2003. 24 h after transfection cells were treated with GC2 for the indicated time periods and analyzed by fluorescence microscopy.
# The localization of LC3 (microtubule-associated protein1 light chain 3), which is an established marker for autophagosome membranes, see e.g. Kabeya, Y., et al. EMBO J., 19, 5720-5728, 2000, was examined in cells treated with GC2. LC3 is newly synthetised and recruited to autophagosomal membranes when autophagy is activated and is detected as cup- and ring shaped structures, see e.g. Mizushima, N. et al. Int. J. Biochem. & Cell Biol. 36, 2491-2502, 2004. […] In GC2-treated MNT-1 cells, very few vacuoles were observed by a phase contrast microscopy. The MNT-1 cell line was also the least positive for autophagic marker (data not shown).
# B16F10 cells = assay: Annexin V/PI double labeling, flow cytometry, B16F10; format: cell-based, murine; settings: B16F10, 6 μM
# Description: Apoptosis in GC2-treated melanoma cells was detected using Annexin V and PI double labeling assay, see van Engeland, M., et al., Cytometry, 31, 1-9, 1998. Annexin V/PI labeling was applied to both fluorescence microscopy and flow cytometry following the protocol supplied by the manufacturer. Briefly, for fluorescence microscopy analysis adherent cells (approximately 16×10^4) treated with GC2 were washed with annexin V binding buffer, and incubated with Alexa Fluor® 488 Annexin V (5 μl in 1 ml annexin V binding buffer) for 15 min at RT, in the dark, to which 0.2 μg PI was added. Live cells were washed with annexin V binding buffer and examined by microscopy. For flow cytometric analysis, cells treated with GC2 were harvested by trypsinisation and a number of viable cells was counted. 16×10^4 cells were re-suspended in 0.2 ml annexin V binding buffer and treated in the same were adherent cells. Finally, labeled cells were analyzed with a FACScan™ using CellQuest™ software (Becton Dickinson, San Jose, Calif.).
# Cells cultured under normal conditions for 24 h were further treated for 5 h, 8 h or 24 h with 6 μM of GC2, labeled with annexin V and PI and quantitatively analyzed by flow cytometry for viable, apoptotic and necrotic populations (FIG. 7).
# SKMel28 cells = assay: Acidic vesicular organelles, Lysotracker Red vital staining; format: cell-based; settings: SKMel28, 6 μM, 3 h and 8 h
# Description: Tumor cells were cultured 24 h on cover glasses, treated with GC2, and processed as described in Negroiu, G., et al. J. Biol. Chem. 278, 27035-27042, 2003. The acidic vesicular compartments were detected following incubation of live cells GC2 treated with Lysotracker® Red (0.125 μl/ml culture medium) for 30 min at 37° C. Fixed cells were incubated with the following primary antibodies: mouse anti-EEA1 (1:100), human-CD107A (anti-Lamp1) (1:50), a mouse anti-α tubulin (1:200) followed by an appropriate Alexa Fluor® 488 conjugated secondary antibodies (1:400) or with Alexa Fluor® 594 phalloidin. Finally, nuclei of fixed cells were stained with 5 mM Hoechst dye 33342. Cells were washed three times with PBS and mounted in Vectashield® mounting medium.
# Acidic compartments of untreated and GC2-treated tumor cells were differentiated using a lysosomotropic agent LysoTracker® Red (LT), a marker for tracking acidic organelles in live cells. These probes can be used to investigate the acidification of lysosomes and alteration of their function or trafficking that occur in the cell. In untreated SKMel28 cells (FIG. 5Aa) the LT probe has a moderate fluorescence as fine punctate structures distributed within the entire cell cytoplasm and occasionally at the cell periphery.
# [1] = Solubility in solvent mixture; format: physicochemical; settings: solvent mixture (GC2 buffer)
# [2] = test system: MMP-2 secreted by T11 glioblastoma multiform cells; assay: MMP analysis by SDS-PAGE gelatin zymography; format: cell-based; settings: 20 h
# Description: T11 cells were grown in a complete DMEM medium until they reached 80% confluency. The cells were washed using DMEM medium without serum and incubated for 20 h with various concentrations of GC2 shown in preliminary experiments not to affect cell viability. The culture medium was collected, centrifuged at 2000 rpm, for 5 min, to remove the cells in suspension. The culture medium was further concentrated five times by ultrafiltration on centricon membranes (molecular weight cut off 30,000 from Milipore). Three parts of medium containing equal amounts of protein (20 μg) were mixed with one part of Laemmnli buffer without reducing agent. Samples were applied on a gel of 8% polyacrylamide impregnated with 0.5 mg/ml denaturated type I collagen (gelatin) and separated electrophoretically. […]
# To investigate if GC2 treatment interferes with secretion of MMPs a glioblastoma multiform cell line, T11 previously tested for its capacity to secrete MMP-2 was used. Cells were cultured for 20 h in the presence of different concentrations of GC2, established by preliminary experiments to be nontoxic for this cell line, and medium was concentrated and analyzed by Sodium Dodecyl Sulphate PolyAcrylamide Gel Electrophoresis (SDS-PAGE) gelatin zymography. […]
structure (smiles),measurement,setting,value
"CC(=O)O.CCCCCCCCCN1[C@@H](CO)[C@@H](O)[C@H](O)[C@@H]1CCCCCCCC [GC2, (2S,3R,4R,5S)-3,4-dihydroxy-N-nonyl-5-octyl-2 hydroxymethylpyrrolidinium acetate]",GFP-LC3 distribution (autophagic marker),MelJuSo cells,punctate pattern of bright fluorescence
same,"number of viable, apoptotic or necrotic cells",B16F10 cells; 5 h,did not change significantly
same,increase of apoptotic cells versus control (factor),B16F10 cells; 8 h,1.7
same,increase of necrotic fraction versus control,B16F10 cells; 8 h,approximately doubled
same,apoptotic cells,"B16F10 cells; 8 h, control 1.95%",3.44%
same,necrotic fraction,"B16F10 cells; 8 h, control 4.28%",8.78%
same,increase of apoptotic cells versus control (factor),B16F10 cells; 24 h,2.9
same,increase of necrotic fraction versus control (factor),B16F10 cells; 24 h,4.4
same,apoptotic cells,"B16F10 cells; 24 h, control 2.28%",6.72%
same,necrotic fraction,"B16F10 cells; 24 h, control 4.95%",22.16%
same,Lysotracker Red probe distribution (acidic vesicles),SKMel28 cells,"accumulates in large, bright red fluorescent vesicles in a time dependent manner"
same,solubility,[1],good solubility
same,intensity of the MMP-2 band,"[2]; 0.65 μM, 1.25 μM, 2.5 μM and 5 μM",decreasing in a concentration dependent manner
same,MMP-2 secretion,[2]; 5 μM,total inhibition
